Measured values published in PubChem BioAssay (NCI).
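The concentration for 50% growth inhibition is given as GI50. The concentration for full growth arrest is given as TGI.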

Assays:
Assay in all cases: growth of human tumour cells (NCI), 384-well format
OVCAR-3 ovarian = test system: OVCAR-3 ovarian
NCI/ADR-RES ovarian = test system: NCI/ADR-RES ovarian
NCI-H522 lung = test system: NCI-H522 lung
TK-10 renal = test system: TK-10 renal
LOX IMVI melanoma = test system: LOX IMVI melanoma
UACC-62 melanoma = test system: UACC-62 melanoma
MDA-MB-435 melanoma = test system: MDA-MB-435 melanoma
HOP-62 NSCLC = test system: HOP-62 NSCLC
OVCAR-4 ovarian = test system: OVCAR-4 ovarian
PC-3 prostate = test system: PC-3 prostate
A498 renal = test system: A498 renal
HCT-15 colon = test system: HCT-15 colon
MCF7 breast = test system: MCF7 breast
A549 NSCLC = test system: A549 NSCLC
HT29 colon = test system: HT29 colon
MDA-MB-468 breast = test system: MDA-MB-468 breast
IGROV1 ovarian = test system: IGROV1 ovarian
KM12 colon = test system: KM12 colon
SR leukemia = test system: SR leukemia
RPMI-8226 leukemia = test system: RPMI-8226 leukemia
SN12C renal = test system: SN12C renal
UO-31 renal = test system: UO-31 renal
NCI-H460 NSCLC = test system: NCI-H460 NSCLC
T-47D breast = test system: T-47D breast
CAKI-1 renal = test system: CAKI-1 renal
M14 melanoma = test system: M14 melanoma
MDA-MB-231 breast = test system: MDA-MB-231 breast
NCI-H23 lung = test system: NCI-H23 lung
EKVX NSCLC = test system: EKVX NSCLC
HS 578T breast = test system: HS 578T breast
HCC-2998 colon = test system: HCC-2998 colon
SK-MEL-5 melanoma = test system: SK-MEL-5 melanoma
HOP-92 NSCLC = test system: HOP-92 NSCLC
SF-295 CNS = test system: SF-295 CNS
MOLT-4 leukemia = test system: MOLT-4 leukemia
OVCAR-5 ovarian = test system: OVCAR-5 ovarian
BT-549 breast = test system: BT-549 breast
MALME-3M melanoma = test system: MALME-3M melanoma
NCI-H322M lung = test system: NCI-H322M lung
UACC-257 melanoma = test system: UACC-257 melanoma
SF-539 CNS = test system: SF-539 CNS
HL-60(TB) leukemia = test system: HL-60(TB) leukemia
SK-OV-3 ovarian = test system: SK-OV-3 ovarian
DU-145 prostate = test system: DU-145 prostate
SK-MEL-28 melanoma = test system: SK-MEL-28 melanoma
RXF 393 renal = test system: RXF 393 renal
ACHN renal = test system: ACHN renal
CCRF-CEM leukemia = test system: CCRF-CEM leukemia
SF-268 CNS = test system: SF-268 CNS
786-0 renal = test system: 786-0 renal
K-562 leukemia = test system: K-562 leukemia
SNB-19 CNS = test system: SNB-19 CNS
COLO 205 colon = test system: COLO 205 colon
SW-620 colon = test system: SW-620 colon
NCI-H226 lung = test system: NCI-H226 lung
SNB-75 CNS = test system: SNB-75 CNS
OVCAR-8 ovarian = test system: OVCAR-8 ovarian

SMILES: C=CC(=O)N1CCC(c2ccc(C(N)=O)c(-c3ccc(Oc4ccccc4)cc3)n2)CC1
- GI50 (OVCAR-3 ovarian): 27.1 µM
- TGI (OVCAR-3 ovarian): 66.5 µM
- GI50 (NCI/ADR-RES ovarian): 16.6 µM
- TGI (NCI/ADR-RES ovarian): 37.2 µM
- GI50 (NCI-H522 lung): 12.2 µM
- TGI (NCI-H522 lung): 30.7 µM
- GI50 (TK-10 renal): 25.2 µM
- TGI (TK-10 renal): 81.4 µM
- GI50 (LOX IMVI melanoma): 25.1 µM
- TGI (LOX IMVI melanoma): 62.9 µM
- GI50 (UACC-62 melanoma): 40.4 µM
- TGI (UACC-62 melanoma): > 100 µM
- GI50 (MDA-MB-435 melanoma): 38.7 µM
- TGI (MDA-MB-435 melanoma): > 100 µM
- GI50 (HOP-62 NSCLC): 25.4 µM
- TGI (HOP-62 NSCLC): 83.7 µM
- GI50 (OVCAR-4 ovarian): 25.7 µM
- TGI (OVCAR-4 ovarian): 69.7 µM
- GI50 (PC-3 prostate): 41.2 µM
- TGI (PC-3 prostate): > 100 µM
- GI50 (A498 renal): 21.3 µM
- TGI (A498 renal): 69.9 µM
- GI50 (HCT-15 colon): 30.6 µM
- TGI (HCT-15 colon): > 100 µM
- GI50 (MCF7 breast): 28.6 µM
- TGI (MCF7 breast): > 100 µM
- GI50 (A549 NSCLC): 34.8 µM
- TGI (A549 NSCLC): > 100 µM
- GI50 (HT29 colon): 59.6 µM
- TGI (HT29 colon): > 100 µM
- GI50 (MDA-MB-468 breast): 3.99 µM
- TGI (MDA-MB-468 breast): 10.2 µM
- GI50 (IGROV1 ovarian): 21.3 µM
- TGI (IGROV1 ovarian): 56 µM
- GI50 (KM12 colon): 37.3 µM
- TGI (KM12 colon): > 100 µM
- GI50 (SR leukemia): 11.7 µM
- TGI (SR leukemia): 26.7 µM
- GI50 (RPMI-8226 leukemia): 15.1 µM
- TGI (RPMI-8226 leukemia): 29.3 µM
- GI50 (SN12C renal): 33.1 µM
- TGI (SN12C renal): > 100 µM
- GI50 (UO-31 renal): 74.1 µM
- TGI (UO-31 renal): > 100 µM
- GI50 (NCI-H460 NSCLC): 27.4 µM
- TGI (NCI-H460 NSCLC): 71.5 µM
- GI50 (T-47D breast): 16.9 µM
- TGI (T-47D breast): 87.2 µM
- GI50 (CAKI-1 renal): 23.5 µM
- TGI (CAKI-1 renal): > 100 µM
- GI50 (M14 melanoma): 33.9 µM
- TGI (M14 melanoma): > 100 µM
- GI50 (MDA-MB-231 breast): 30.8 µM
- TGI (MDA-MB-231 breast): > 100 µM
- GI50 (NCI-H23 lung): 28.3 µM
- TGI (NCI-H23 lung): > 100 µM
- GI50 (EKVX NSCLC): 22.6 µM
- TGI (EKVX NSCLC): 84.1 µM
- GI50 (HS 578T breast): 21.1 µM
- TGI (HS 578T breast): 58.9 µM
- GI50 (HCC-2998 colon): 29.5 µM
- TGI (HCC-2998 colon): 90.3 µM
- GI50 (SK-MEL-5 melanoma): 18 µM
- TGI (SK-MEL-5 melanoma): 35.8 µM
- GI50 (HOP-92 NSCLC): 20 µM
- TGI (HOP-92 NSCLC): 91 µM
- GI50 (SF-295 CNS): 41.1 µM
- TGI (SF-295 CNS): > 100 µM
- GI50 (MOLT-4 leukemia): 12.7 µM
- TGI (MOLT-4 leukemia): 25.7 µM
- GI50 (OVCAR-5 ovarian): > 100 µM
- TGI (OVCAR-5 ovarian): > 100 µM
- GI50 (BT-549 breast): 17.9 µM
- TGI (BT-549 breast): 41.8 µM
- GI50 (MALME-3M melanoma): 29.7 µM
- TGI (MALME-3M melanoma): 83.4 µM
- GI50 (NCI-H322M lung): 25.3 µM
- TGI (NCI-H322M lung): > 100 µM
- GI50 (UACC-257 melanoma): 18.3 µM
- TGI (UACC-257 melanoma): 42.1 µM
- GI50 (SF-539 CNS): 27 µM
- TGI (SF-539 CNS): 78.5 µM
- GI50 (HL-60(TB) leukemia): 15 µM
- TGI (HL-60(TB) leukemia): 28.3 µM
- GI50 (SK-OV-3 ovarian): 26.9 µM
- TGI (SK-OV-3 ovarian): > 100 µM
- GI50 (DU-145 prostate): 24.7 µM
- TGI (DU-145 prostate): 79.9 µM
- GI50 (SK-MEL-28 melanoma): 95.1 µM
- TGI (SK-MEL-28 melanoma): > 100 µM
- GI50 (RXF 393 renal): 24.9 µM
- TGI (RXF 393 renal): 73.5 µM
- GI50 (ACHN renal): 32.4 µM
- TGI (ACHN renal): > 100 µM
- GI50 (CCRF-CEM leukemia): 17.4 µM
- TGI (CCRF-CEM leukemia): 34.2 µM
- GI50 (SF-268 CNS): 35.3 µM
- TGI (SF-268 CNS): > 100 µM
- GI50 ([…]-0 renal): 29.2 µM
- TGI (786-0 renal): > 100 µM
- GI50 (K-562 leukemia): 28.8 µM
- TGI (K-562 leukemia): > 100 µM
- GI50 (SNB-19 CNS): 39.7 µM
- TGI (SNB-19 CNS): > 100 µM
- GI50 (COLO 205 colon): 89.8 µM
- TGI (COLO 205 colon): > 100 µM
- GI50 (SW-620 colon): 32.9 µM
- TGI (SW-620 colon): 84.9 µM
- GI50 (NCI-H226 lung): 22.7 µM
- TGI (NCI-H226 lung): 72.4 µM
- GI50 (SNB-75 CNS): 37.6 µM
- TGI (SNB-75 CNS): > 100 µM
- GI50 (OVCAR-8 ovarian): 23.8 µM
- TGI (OVCAR-8 ovarian): 66.1 µM
